According to the CheMixHub viscosity set:

Assay: xn = mol fraction of the nth substance listed

CCC(=O)c1ccccc1 + CCOC(C)=O
viscosity [mPa·s], 101 kPa
Conditions	x1 = 0.0764	x1 = 0.1569	x1 = 0.2419	x1 = 0.3317	x1 = 0.4268	x1 = 0.5276	x1 = 0.6347	x1 = 0.7486	x1 = 0.8701
303.15 K	0.4784	0.5399	0.6088	0.6897	0.7853	0.8977	1.034	1.199	1.398
308.15 K	0.4618	0.519	0.5844	0.6608	0.7493	0.8602	0.9953	1.153	1.333
313.15 K	0.4426	0.4991	0.5564	0.6277	0.7199	0.8175	0.9454	1.095	1.261

S=C=S + CCOCC
298.15 K, 101 kPa
Conditions	viscosity [mPa·s]
x2 = 0.1341	0.338
x2 = 0.3497	0.306
x2 = 0.6338	0.269

CCC(=O)c1ccccc1 + CCOCCO
viscosity [mPa·s], 101 kPa
Conditions	x1 = 0.0756	x1 = 0.1554	x1 = 0.2397	x1 = 0.3291	x1 = 0.4239	x1 = 0.5246	x1 = 0.6319	x1 = 0.7464	x1 = 0.8688
303.15 K	1.562	1.555	1.547	1.54	1.532	1.526	1.522	1.517	1.515
308.15 K	1.466	1.464	1.462	1.461	1.461	1.461	1.462	1.464	1.466
313.15 K	1.366	1.369	1.372	1.376	1.381	1.387	1.394	1.401	1.41
318.15 K	1.279	1.285	1.291	1.3	1.309	1.32	1.331	1.343	1.357

O=CN1CCOCC1 + CCc1ccccc1
298.15 K, 101.3 kPa
Conditions	viscosity [mPa·s]
x2 = 0.03224	6.848
x2 = 0.06252	6.122
x2 = 0.08602	5.678
x2 = 0.1584	4.43
x2 = 0.2704	3.151
x2 = 0.3512	2.527
x2 = 0.4701	1.841
x2 = 0.5569	1.511
x2 = 0.6373	1.261
x2 = 0.6888	1.137
x2 = 0.7771	0.986
x2 = 0.8636	0.829
x2 = 0.9317	0.713

CCCCCCn1cc[n+](C)c1.[Cl-] + CN1CCCC1=O
100 kPa
Conditions	viscosity [mPa·s]
293.15 K, x1 = 0.0917	4.165
293.15 K, x1 = 0.3673	49.65
298.15 K, x1 = 0.1861	8.485
303.15 K, x1 = 0.3673	31.75
308.15 K, x1 = 0.1861	6.465

OCCO + CN1CCCC1=O
101.33 kPa
Conditions	viscosity [mPa·s]
298.15 K, x2 = 0.04751	15.44
298.15 K, x2 = 0.09916	13.78
298.15 K, x2 = 0.1991	10.76
298.15 K, x2 = 0.3018	8.242
298.15 K, x2 = 0.4012	6.415
298.15 K, x2 = 0.5073	4.977
298.15 K, x2 = 0.6067	3.952
298.15 K, x2 = 0.7014	3.171
298.15 K, x2 = 0.8018	2.527
298.15 K, x2 = 0.9001	2.066
298.15 K, x2 = 0.9545	1.852
308.15 K, x2 = 0.04799	10.58
308.15 K, x2 = 0.1004	9.465
308.15 K, x2 = 0.2025	7.514
308.15 K, x2 = 0.3042	5.982
308.15 K, x2 = 0.4097	4.697
308.15 K, x2 = 0.5032	3.855
308.15 K, x2 = 0.6042	3.122
308.15 K, x2 = 0.6992	2.566
308.15 K, x2 = 0.7967	2.112
308.15 K, x2 = 0.9027	1.716
308.15 K, x2 = 0.9599	1.543
318.15 K, x2 = 0.04516	7.524
318.15 K, x2 = 0.1031	6.736
318.15 K, x2 = 0.1996	5.567
318.15 K, x2 = 0.2999	4.538
318.15 K, x2 = 0.4047	3.687
318.15 K, x2 = 0.5078	3.015
318.15 K, x2 = 0.6054	2.505
318.15 K, x2 = 0.6952	2.124
318.15 K, x2 = 0.7968	1.771
318.15 K, x2 = 0.8899	1.498
318.15 K, x2 = 0.9612	1.327

CCCCCC(C)O (configuration not stated) + CN(C)C=O
viscosity [mPa·s], 101 kPa
Conditions	x2 = 0.1086	x2 = 0.153	x2 = 0.24	x2 = 0.3446	x2 = 0.4409	x2 = 0.5599	x2 = 0.6544	x2 = 0.7432	x2 = 0.8428	x2 = 0.9372
298.15 K	4.28	4	3.56	3.15	2.78	2.35	2.01	1.68	1.34	1.03
303.15 K	3.46	3.21	2.85	2.52	2.25	1.92	1.67	1.42	1.17	0.93
308.15 K	2.79	2.6	2.31	2.04	1.83	1.58	1.4	1.22	1.03	0.84
313.15 K	2.32	2.15	1.91	1.69	1.53	1.34	1.2	1.07	0.91	0.77

C=CCN=C=S + CN(C)c1ccccc1
303.15 K, 101 kPa
Conditions	viscosity [mPa·s]
x1 = 0.2324	1.032
x1 = 0.4846	0.884
x1 = 0.7377	0.761

CCC(=O)c1ccccc1 + CN(C)c1ccccc1
viscosity [mPa·s], 101 kPa
Conditions	303.15 K	308.15 K
x2 = 0.0658	1.475	1.429
x2 = 0.1256	1.445	1.398
x2 = 0.1989	1.411	1.362
x2 = 0.2531	1.388	1.338
x2 = 0.3331	1.358	1.305
x2 = 0.4074	1.332	1.279
x2 = 0.4755	1.309	1.254
x2 = 0.5265	1.293	1.237
x2 = 0.6121	1.268	1.21
x2 = 0.6923	1.249	1.187
x2 = 0.7625	1.229	1.167
x2 = 0.8156	1.217	1.155
x2 = 0.8625	1.208	1.144

CC(C)NC(C)C + CNC(C)=O
308.15 K, 101 kPa
Conditions	viscosity [mPa·s]
x2 = 0.0739	0.3617
x2 = 0.2151	0.5132
x2 = 0.3226	0.7392
x2 = 0.4754	1.069
x2 = 0.6497	1.625
x2 = 0.786	2.167
x2 = 0.8761	2.652
x2 = 0.9277	2.973
x2 = 0.9762	3.194

CCC(=O)c1ccccc1 + CNC(C)=O
308.15 K, 101 kPa
Conditions	viscosity [mPa·s]
x1 = 0.06	2.972
x1 = 0.1269	2.778
x1 = 0.1862	2.61
x1 = 0.2778	2.38
x1 = 0.3654	2.19
x1 = 0.4649	2.005
x1 = 0.5709	1.828
x1 = 0.6929	1.648
x1 = 0.8315	1.485

OCCO + CO
Conditions	viscosity [mPa·s]
293.15 K, 101.33 kPa, x1 = 0.0476	0.724
293.15 K, 101.33 kPa, x1 = 0.0598	0.766
293.15 K, 101.33 kPa, x1 = 0.0918	0.914
293.15 K, 101.33 kPa, x1 = 0.1023	0.918
293.15 K, 101.33 kPa, x1 = 0.1742	1.243
293.15 K, 101.33 kPa, x1 = 0.2098	1.409
293.15 K, 101.33 kPa, x1 = 0.3191	2.142
293.15 K, 101.33 kPa, x1 = 0.3538	2.413
293.15 K, 101.33 kPa, x1 = 0.4072	2.906
293.15 K, 101.33 kPa, x1 = 0.4225	3.085
293.15 K, 101.33 kPa, x1 = 0.4474	3.338
293.15 K, 101.33 kPa, x1 = 0.4889	3.824
293.15 K, 101.33 kPa, x1 = 0.5955	5.485
293.15 K, 101.33 kPa, x1 = 0.6932	7.481
293.15 K, 101.33 kPa, x1 = 0.836	11.43
293.15 K, 101.33 kPa, x1 = 0.859	12.3
298.15 K, 101 kPa, x1 = 0.1	0.8363
298.15 K, 101 kPa, x1 = 0.2	1.245
298.15 K, 101 kPa, x1 = 0.2969	1.998
298.15 K, 101 kPa, x1 = 0.3	1.795
298.15 K, 101 kPa, x1 = 0.34	2.045
298.15 K, 101 kPa, x1 = 0.4	2.562
298.15 K, 101 kPa, x1 = 0.5	3.602
298.15 K, 101 kPa, x1 = 0.6	5.022
298.15 K, 101 kPa, x1 = 0.7	6.964
298.15 K, 101 kPa, x1 = 0.8	9.561
298.15 K, 101 kPa, x1 = 0.9	13.09
308.15 K, 101 kPa, x1 = 0.1	0.7007
308.15 K, 101 kPa, x1 = 0.2	1.011
308.15 K, 101 kPa, x1 = 0.2969	1.634
308.15 K, 101 kPa, x1 = 0.3	1.442
308.15 K, 101 kPa, x1 = 0.4	2.032
308.15 K, 101 kPa, x1 = 0.5	2.818
308.15 K, 101 kPa, x1 = 0.6	3.883
308.15 K, 101 kPa, x1 = 0.7	5.269
308.15 K, 101 kPa, x1 = 0.8	6.952
308.15 K, 101 kPa, x1 = 0.9	9.251
318.15 K, 101 kPa, x1 = 0.1	0.6194
318.15 K, 101 kPa, x1 = 0.2	0.8557
318.15 K, 101 kPa, x1 = 0.2969	1.36
318.15 K, 101 kPa, x1 = 0.3	1.172
318.15 K, 101 kPa, x1 = 0.4	1.59
318.15 K, 101 kPa, x1 = 0.5	2.134
318.15 K, 101 kPa, x1 = 0.6	2.844
318.15 K, 101 kPa, x1 = 0.7	3.783
318.15 K, 101 kPa, x1 = 0.8	4.96
318.15 K, 101 kPa, x1 = 0.9	6.432

S=C=S + CO
298.15 K, 101.33 kPa
Conditions	viscosity [mPa·s]
x1 = 0.0437	0.5883
x1 = 0.0987	0.5838
x1 = 0.1521	0.5538
x1 = 0.2248	0.5669
x1 = 0.2969	0.57
x1 = 0.9488	0.4088

CCC(=O)c1ccccc1 + COCCO
viscosity [mPa·s], 101 kPa
Conditions	x1 = 0.0624	x1 = 0.1302	x1 = 0.2041	x1 = 0.2852	x1 = 0.3744	x1 = 0.4731	x1 = 0.5827	x1 = 0.7054	x1 = 0.8434
303.15 K	1.568	1.562	1.557	1.551	1.545	1.54	1.534	1.529	1.523
308.15 K	1.394	1.398	1.403	1.408	1.414	1.422	1.431	1.442	1.454
313.15 K	1.234	1.246	1.259	1.274	1.292	1.312	1.334	1.359	1.388
318.15 K	1.108	1.125	1.145	1.167	1.192	1.22	1.251	1.287	1.328

NCc1ccccc1 + COc1ccccc1
303.15 K, 101 kPa
Conditions	viscosity [mPa·s]
x1 = 0.1	0.939
x1 = 0.2	0.975
x1 = 0.3	1.016
x1 = 0.3999	1.061
x1 = 0.4999	1.11
x1 = 0.5999	1.163
x1 = 0.7	1.22
x1 = 0.8	1.281
x1 = 0.9	1.346

O=C[C@H](O)[C@@H](O)[C@H](O)[C@H](O)CO + CS(C)=O
viscosity [mPa·s], 101 kPa
Conditions	x1 = 0.04081	x1 = 0.08276	x1 = 0.1291	x1 = 0.1784
298.15 K	3.819	8.234	21.23	62.65
308.15 K	2.988	5.977	13.9	36.04
318.15 K	2.408	4.525	9.672	22.4

O=CN1CCOCC1 + Cc1cc(C)cc(C)c1
298.15 K, 101.3 kPa
Conditions	viscosity [mPa·s]
x2 = 0.02898	7.041
x2 = 0.0601	6.315
x2 = 0.08748	5.789
x2 = 0.1453	4.838
x2 = 0.2504	3.53
x2 = 0.3197	2.903
x2 = 0.4426	2.093
x2 = 0.5274	1.701
x2 = 0.6167	1.375
x2 = 0.661	1.264
x2 = 0.7503	1.058
x2 = 0.8348	0.877
x2 = 0.9476	0.731
